From PubChem BioAssay (NCI)
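48-hour exposure; five concentrations; linearly interpolated endpoints. TGI denotes the concentration required for complete inhibition of growth.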

Columns and labels:
Assay in all cases: DTP human tumour cell line panel, 48 h
[1] = system: 786-0 renal
[2] = system: A498 renal
[3] = system: A549 NSCLC
[4] = system: ACHN renal
[5] = system: BT-549 breast
[6] = system: CAKI-1 renal
[7] = system: CCRF-CEM leukemia
[8] = system: COLO 205 colon
[9] = system: DU-145 prostate
[10] = system: HCC-2998 colon
[11] = system: HCT-116 colon
[12] = system: HCT-15 colon
[13] = system: HOP-62 NSCLC
[14] = system: HOP-92 NSCLC
[15] = system: HS 578T breast
[16] = system: HT29 colon
[17] = system: IGROV1 ovarian
[18] = system: K-562 leukemia
[19] = system: KM12 colon
[20] = system: M14 melanoma
[21] = system: MALME-3M melanoma
[22] = system: MCF7 breast
[23] = system: MDA-MB-231 breast
[24] = system: MDA-MB-435
[25] = system: MDA-N
[26] = system: MOLT-4 leukemia
[27] = system: NCI-H226 lung
[28] = system: NCI-H23 lung
[29] = system: NCI-H460 lung
[30] = system: NCI-H522 lung
[31] = system: NCI/ADR-RES ovarian
[32] = system: OVCAR-3 ovarian
[33] = system: OVCAR-4 ovarian
[34] = system: OVCAR-5 ovarian
[35] = system: OVCAR-8 ovarian
[36] = system: PC-3 prostate
[37] = system: RPMI-8226 leukemia
[38] = system: RXF 393 renal
[39] = system: SF-268 CNS
[40] = system: SF-295 CNS
[41] = system: SF-539 CNS
[42] = system: SK-MEL-2 melanoma
[43] = system: SK-MEL-28 melanoma
[44] = system: SK-MEL-5 melanoma
[45] = system: SK-OV-3 ovarian
[46] = system: SN12C renal
[47] = system: SNB-75 CNS
[48] = system: SR leukemia
[49] = system: SW-620 colon
[50] = system: T-47D breast
[51] = system: TK-10 renal
[52] = system: U251 CNS
[53] = system: UACC-257 melanoma
[54] = system: UACC-62 melanoma
[55] = system: UO-31 renal
[56] = system: HL-60(TB) leukemia
[57] = system: LOX IMVI melanoma
[58] = system: SNB-19 CNS

O=C1CC(=O)NC(=NN2C(=O)CSC2c2ccccc2)N1 (configuration not stated)
TGI [1]: > 100 µM
TGI [2]: > 100 µM
TGI [3]: > 100 µM
TGI [4]: > 100 µM
TGI [5]: > 100 µM
TGI [6]: > 100 µM
TGI [7]: > 100 µM
TGI [8]: > 100 µM
TGI [9]: > 100 µM
TGI [10]: > 100 µM
TGI [11]: > 100 µM
TGI [12]: > 100 µM
TGI [13]: > 100 µM
TGI [14]: > 100 µM
TGI [15]: > 100 µM
TGI [16]: > 100 µM
TGI [17]: > 100 µM
TGI [18]: > 100 µM
TGI [19]: > 100 µM
TGI [20]: > 100 µM
TGI [21]: > 100 µM
TGI [22]: > 100 µM
TGI [23]: > 100 µM
TGI [24]: > 100 µM
TGI [25]: > 100 µM
TGI [26]: > 100 µM
TGI [27]: > 100 µM
TGI [28]: > 100 µM
TGI [29]: > 100 µM
TGI [30]: > 100 µM
TGI [31]: > 100 µM
TGI [32]: > 100 µM
TGI [33]: > 100 µM
TGI [34]: > 100 µM
TGI [35]: > 100 µM
TGI [36]: > 100 µM
TGI [37]: > 100 µM
TGI [38]: > 100 µM
TGI [39]: > 100 µM
TGI [40]: > 100 µM
TGI [41]: > 100 µM
TGI [42]: > 100 µM
TGI [43]: > 100 µM
TGI [44]: > 100 µM
TGI [45]: > 100 µM
TGI [46]: > 100 µM
TGI [47]: > 100 µM
TGI [48]: > 100 µM
TGI [49]: > 100 µM
TGI [50]: > 100 µM
TGI [51]: > 100 µM
TGI [52]: > 100 µM
TGI [53]: > 100 µM
TGI [54]: > 100 µM
TGI [55]: > 100 µM

CC(=O)C1=C(c2ccccc2)N(C2OC(CO)C(O)C(O)C2O)C(S)=C(C#N)C1c1ccc(Cl)cc1 (configuration not stated)
TGI [1]: 80.6 µM
TGI [2]: > 100 µM
TGI [3]: > 100 µM
TGI [4]: > 100 µM
TGI [5]: 35.6 µM
TGI [6]: 75 µM
TGI [7]: > 100 µM
TGI [8]: 40.6 µM
TGI [9]: > 100 µM
TGI [10]: 34.3 µM
TGI [11]: 30.6 µM
TGI [12]: > 100 µM
TGI [56]: > 100 µM
TGI [13]: 59.9 µM
TGI [14]: 88.7 µM
TGI [15]: 78.5 µM
TGI [16]: > 100 µM
TGI [17]: > 100 µM
TGI [18]: > 100 µM
TGI [19]: 42.1 µM
TGI [57]: 34.1 µM
TGI [20]: 46.7 µM
TGI [21]: 50.4 µM
TGI [22]: 42 µM
TGI [23]: 61.8 µM
TGI [24]: 51.2 µM
TGI [25]: 51.5 µM
TGI [26]: 35.3 µM
TGI [27]: 58.8 µM
TGI [28]: > 100 µM
TGI [29]: 52.7 µM
TGI [30]: 48.1 µM
TGI [31]: > 100 µM
TGI [32]: 37.2 µM
TGI [33]: > 100 µM
TGI [34]: > 100 µM
TGI [35]: > 100 µM
TGI [36]: 42.2 µM
TGI [37]: > 100 µM
TGI [38]: 85.3 µM
TGI [39]: 73.9 µM
TGI [40]: 99.6 µM
TGI [41]: 50 µM
TGI [42]: 29.2 µM
TGI [43]: 41.6 µM
TGI [44]: 34.9 µM
TGI [46]: > 100 µM
TGI [58]: > 100 µM
TGI [47]: 78.8 µM
TGI [48]: > 100 µM
TGI [49]: 34.5 µM
TGI [50]: 40.4 µM
TGI [51]: > 100 µM
TGI [52]: 35.2 µM
TGI [53]: 49.4 µM
TGI [54]: 30.8 µM
TGI [55]: > 100 µM

COc1cc(C[C@@H](C)N)cc(OC)c1
TGI [1]: > 100 µM
TGI [2]: > 100 µM
TGI [3]: > 100 µM
TGI [4]: > 100 µM
TGI [5]: > 100 µM
TGI [6]: > 100 µM
TGI [7]: > 100 µM
TGI [8]: > 100 µM
TGI [9]: > 100 µM
TGI [10]: > 100 µM
TGI [11]: > 100 µM
TGI [12]: > 100 µM
TGI [56]: > 100 µM
TGI [13]: > 100 µM
TGI [15]: > 100 µM
TGI [16]: > 100 µM
TGI [17]: > 100 µM
TGI [18]: > 100 µM
TGI [19]: > 100 µM
TGI [57]: > 100 µM
TGI [20]: > 100 µM
TGI [21]: > 100 µM
TGI [22]: > 100 µM
TGI [23]: > 100 µM
TGI [24]: > 100 µM
TGI [25]: > 100 µM
TGI [26]: > 100 µM
TGI [27]: > 100 µM
TGI [28]: > 100 µM
TGI [29]: > 100 µM
TGI [30]: > 100 µM
TGI [31]: > 100 µM
TGI [32]: > 100 µM
TGI [33]: > 100 µM
TGI [34]: > 100 µM
TGI [35]: > 100 µM
TGI [36]: > 100 µM
TGI [37]: > 100 µM
TGI [38]: > 100 µM
TGI [39]: > 100 µM
TGI [40]: > 100 µM
TGI [41]: > 100 µM
TGI [42]: > 100 µM
TGI [43]: > 100 µM
TGI [44]: > 100 µM
TGI [45]: > 100 µM
TGI [46]: > 100 µM
TGI [58]: > 100 µM
TGI [47]: 98.4 µM
TGI [48]: > 100 µM
TGI [49]: > 100 µM
TGI [50]: > 100 µM
TGI [51]: > 100 µM
TGI [52]: > 100 µM
TGI [53]: > 100 µM
TGI [54]: > 100 µM
TGI [55]: > 100 µM

CC(=O)OC1CC2(C)C(OC(C)=O)CC1C2(C)C (configuration not stated)
TGI [1]: > 100 µM
TGI [3]: > 100 µM
TGI [4]: > 100 µM
TGI [5]: > 100 µM
TGI [7]: > 100 µM
TGI [8]: > 100 µM
TGI [9]: > 100 µM
TGI [10]: > 100 µM
TGI [11]: > 100 µM
TGI [12]: > 100 µM
TGI [56]: > 100 µM
TGI [13]: > 100 µM
TGI [14]: > 100 µM
TGI [15]: > 100 µM
TGI [16]: > 100 µM
TGI [17]: > 100 µM
TGI [18]: > 100 µM
TGI [19]: > 100 µM
TGI [57]: > 100 µM
TGI [20]: > 100 µM
TGI [21]: > 100 µM
TGI [22]: > 100 µM
TGI [23]: > 100 µM
TGI [24]: > 100 µM
TGI [25]: > 100 µM
TGI [26]: > 100 µM
TGI [27]: > 100 µM
TGI [28]: > 100 µM
TGI [29]: > 100 µM
TGI [30]: > 100 µM
TGI [31]: > 100 µM
TGI [32]: > 100 µM
TGI [33]: > 100 µM
TGI [34]: > 100 µM
TGI [35]: > 100 µM
TGI [36]: > 100 µM
TGI [37]: > 100 µM
TGI [38]: > 100 µM
TGI [39]: > 100 µM
TGI [40]: > 100 µM
TGI [41]: > 100 µM
TGI [43]: > 100 µM
TGI [44]: > 100 µM
TGI [45]: > 100 µM
TGI [46]: > 100 µM
TGI [58]: > 100 µM
TGI [47]: > 100 µM
TGI [48]: > 100 µM
TGI [49]: > 100 µM
TGI [50]: > 100 µM
TGI [51]: > 100 µM
TGI [52]: > 100 µM
TGI [53]: > 100 µM
TGI [54]: > 100 µM
TGI [55]: > 100 µM

CN(C)CCCNC(=O)N/N=C/c1ccc([N+](=O)[O-])cc1
TGI [1]: > 100 µM
TGI [2]: > 100 µM
TGI [3]: > 100 µM
TGI [4]: > 100 µM
TGI [5]: > 100 µM
TGI [6]: > 100 µM
TGI [7]: > 100 µM
TGI [8]: > 100 µM
TGI [9]: > 100 µM
TGI [10]: > 100 µM
TGI [11]: > 100 µM
TGI [12]: > 100 µM
TGI [56]: > 100 µM
TGI [13]: > 100 µM
TGI [15]: > 100 µM
TGI [16]: > 100 µM
TGI [17]: > 100 µM
TGI [18]: > 100 µM
TGI [19]: > 100 µM
TGI [20]: > 100 µM
TGI [21]: > 100 µM
TGI [22]: > 100 µM
TGI [23]: > 100 µM
TGI [24]: > 100 µM
TGI [25]: > 100 µM
TGI [26]: > 100 µM
TGI [27]: > 100 µM
TGI [28]: > 100 µM
TGI [29]: > 100 µM
TGI [30]: > 100 µM
TGI [31]: > 100 µM
TGI [32]: > 100 µM
TGI [34]: > 100 µM
TGI [35]: > 100 µM
TGI [36]: > 100 µM
TGI [39]: > 100 µM
TGI [40]: > 100 µM
TGI [41]: > 100 µM
TGI [42]: > 100 µM
TGI [43]: > 100 µM
TGI [44]: > 100 µM
TGI [45]: > 100 µM
TGI [46]: > 100 µM
TGI [58]: > 100 µM
TGI [47]: > 100 µM
TGI [48]: > 100 µM
TGI [49]: > 100 µM
TGI [50]: > 100 µM
TGI [51]: > 100 µM
TGI [52]: > 100 µM
TGI [53]: > 100 µM
TGI [54]: > 100 µM
TGI [55]: > 100 µM
